The text below walks through data of PMC12002301, “Discovery and functional characterization of a bombesin-type neuropeptide signaling system in an invertebrate” (Proceedings of the National Academy of Sciences of the …, 2025).

Assay [1] deals with ArBNR2. In words: Luminescence (GFP-aequorin Ca2+) assay, CHO-K1 cells coexpressing ArBNR2 and Gqs5. The class given is cell-based, Asterias rubens. Conditions: ArBNR2, words; up to 10^-5 M. As for the experimental part: (§1) Having investigated relationships of eleven A. rubens BN-type receptor candidates (ArBNR1-11) with BN-type, ET-type, and CCHa/EP-type receptors in other taxa, ArBNR1 was identified as the best candidate and therefore this was selected for experimental testing. However, two other receptors (ArBNR2 and ArBNR3) were also tested. The methods employed for functional characterization of A. rubens neuropeptide receptors have been described previously ([57]) and a description of the methods employed in this study is included in SI Appendix, SI Methods. […]
Functional characterization of A. rubens BN-type receptors
Two cDNAs encoding ArBNR1 and ArBNR3 were cloned from A. rubens radial nerve cord cDNA using Q5 polymerase (NEB, Cat. no. M0491S) and PCR with specific primers (SI Appendix, Table S5). To facilitate expression of the cloned receptors, the forward primers were designed to contain a partial Kozak consensus sequence (ACC) before the ATG start codon. Then, PCR products were inserted into the mammalian expression vector pcDNA 3.1(+) (Invitrogen, Cat. no.
V79020) that had been cut in advance with the restriction enzyme EcoRV (NEB, Cat. no. […] Successful ligation and the direction of the insert was determined by restriction enzyme digestion and sequencing (TubeSeq service; Eurofins Genomics). […]
(§2) identical to residues 18 - 270 of the protein XP_033631283.1, which was determined from genome […]

Assay [2] relates to ArBNR1. Nature of the assay: Luminescence (GFP-aequorin Ca2+) assay, CHO-K1 cells coexpressing ArBNR1 and Gqs5. The class given is cell-based, Asterias rubens. Particulars: ArBNR1, words. The procedure: as §1
As a complement to use of CLANS, phylogenetic trees were generated with the maximum-likelihood method (1000 bootstrap replicates) using One Step Build a ML Tree plugin in TBtools (12), specifying orexin-type receptors as an outgroup. […] Tree_B analysed the branch of tree_A containing ArBNR1; tree_C analysed the branch of tree_A containing ArBNR2; tree_D analysed the branch of tree_A containing ArBNR3; tree_E analysed the branch of tree_A containing ArBNR4, ArBNR5 and ArBNR6; tree_F analysed the branch of tree_A containing ArBNR7; tree_G analysed the branch of tree_A containing ArBNR8; tree_H analysed the branch of tree_A containing ArBNR9 and tree_I analysed the branch of tree_A containing ArBNR10 and ArBNR11. […]
as §2

“Also recorded” adds a separate entry of the source.

With “EPMPSSLALYIANLSP-NH2 [ArBNP65-81, C-terminally amidated 16-residue peptide predicted to be derived from residues 65 to 81 of ArBNP]”, the figures for the peptide-induced luminescence result in assay [1] and in assay [2] were “did not trigger luminescence” and “did not trigger luminescence; also recorded: peptide-induced luminescence was only observed with ArBN5-14”, respectively.

As to “NYNRVFGPTY-NH2 [ArBN5-14, C-terminally amidated 10-residue peptide corresponding to the C-terminal region of ArBN]”, in assay [1], the peptide-induced luminescence entry is reported as “did not trigger luminescence”.
